Source: paper PMC11672294, “The Antipsychotic Drug Aripiprazole Suppresses Colorectal Cancer by Targeting LAMP2a to Induce RNH1/miR‐99a/mTOR‐Mediated Autophagy and Apoptosis” (Advanced Science, 2024)
Structures can show the parent of a compound that is named as a salt.

test system: HT29; conditions: 72 h, relative to DMSO; 10 µM
Method in brief: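 HT29 viability used WST-1 reduction (2 h, 37 °C, A450) after 72 h of treatment; screening compounds were tested singly at 10 µM, with dimethyl sulfoxide as the comparison.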

| SMILES | Relative cell viability (%) [%] |
| --- | --- |
| Nc1nc(N)nc(NC2CC2)n1 [Cyromazine] | 68.48 |
| CCCCCCCCc1ccc(CCC(N)(CO)CO)cc1 [Fingolimod (FTY720) HCl] | 0 |
| Cc1c(C(=O)NN2CCCCC2)nn(-c2ccc(Cl)cc2Cl)c1-c1ccc(Cl)cc1 [Rimonabant] | 79.61 |
| CCCCOc1ccc(C(=O)CCN2CCCCC2)cc1 [Dyclonine HCl] | 155.2 |
| Cc1c(Cl)cccc1Nc1ccccc1C(=O)O [Tolfenamic Acid] | 166.2 |
| CCN(CC)CCNC(=O)c1ccc(N)cc1 [Procainamide HCl] | 73.94 |
| O=C1OC(CN2CCOCC2)CN1/N=C/c1ccc([N+](=O)[O-])o1 (centres unmarked) [Furaltadone HCl] | 75.76 |
| O=C(O)Cc1cc(I)c(Oc2ccc(O)c(I)c2)c(I)c1 [Tiratricol] | 83.03 |
| C#C[C@]1(O)CC[C@H]2[C@@H]3CCc4cc(OC)ccc4[C@H]3CC[C@@]21C [Mestranol] | 119.6 |
| Clc1ccc(COC(Cn2ccnc2)c2ccc(Cl)cc2Cl)c(Cl)c1 (centres unmarked) [Miconazole Nitrate] | 184.3 |
| Cc1cccc(C)c1NC(=O)CN1CCCC1=O [Nefiracetam] | 192.8 |
| Cn1nnc2c(C(N)=O)ncn2c1=O [Temozolomide] | 86.76 |
| CC(=O)O[C@]1(C(C)=O)CC[C@H]2[C@@H]3C=C(Cl)C4=CC(=O)[C@@H]5C[C@@H]5[C@]4(C)[C@H]3CC[C@@]21C [Cyproterone Acetate] | 132.9 |
| CC1(C)CCC(C)(C)c2cc(NC(=O)c3ccc(C(=O)O)cc3)ccc21 [Tamibarotene] | 94.85 |
| OCCOc1ccc(/C(=C(/CCCl)c2ccccc2)c2ccccc2)cc1 [Ospemifene] | 80.303 |
| CN(C)CCc1c[nH]c2ccc(CS(=O)(=O)N3CCCC3)cc12 [Almotriptan Malate] | 113.8 |
| CN1C(=O)CCS(=O)(=O)C1c1ccc(Cl)cc1 (centres unmarked) [Chlormezanone] | 142.8 |
